# Assay results published in patent US11229592B2, “Method for hair volume reduction” (Conopco, Inc., priority 2017, dated 2022).
# How the values were obtained:
# [1] = Long lasting and durable volume reduction of treated hair switches after subsequent washing; conditions: switches from Example 1 subsequently washed, images captured; compared to control
# Procedure: (§1) Dark brown European wavy hair switches of length 25 cm and weight 2 gms, were treated as follows:
# (§2) At the end of the soaking period, the switches were left to dry at 20° C. and 50% RH. When dried, the switches were straightened with 5 passes of FHI irons (FHI Brands, 29003 Avenue Sherman Valencia, Calif. 91355 USA). The switches were then placed in a humidity chamber ˜30 C/80% RH for 1 hour and images were captured and analyzed.
# The switches from the above example were subsequently washed and the images were captured. […] The corresponding benefits for glycine was only −10%.
# [2] = Shape and frizz control (volume) of straightened hair switches after high humidity, image analysis; conditions: After 1 hour at high humidity (30 C./80% RH), switches soaked 30 minutes in 1% aqueous solution, dried, compared to water control
# Procedure: as §1
# Control: After initial washing, soaked for 30 minutes in water
# Comparative Example A: After initial washing, soaked for 30 minutes in aqueous solution of 1% glycine
# Example 1: soaked for 30 minutes in aqueous solution of 1% N-formyl glycine
# as §2
Compound,benefit over control (volume reduction) [1],% shape and frizz control benefit against control [2]
"NCC(=O)O [Comparative Example A, glycine]",−10%,−6%
"O=CNCC(=O)O [Example 1, N-formyl glycine]",32%,30%
